SMILES strings stand for the structures.

In this assay the target is ROCK1;ROCK2 (UniProt O75116). Put plainly: Inhibition of ROCK Kinase Activity.
ROCK1;ROCK2, sequence (O75116 whole entry, looked up): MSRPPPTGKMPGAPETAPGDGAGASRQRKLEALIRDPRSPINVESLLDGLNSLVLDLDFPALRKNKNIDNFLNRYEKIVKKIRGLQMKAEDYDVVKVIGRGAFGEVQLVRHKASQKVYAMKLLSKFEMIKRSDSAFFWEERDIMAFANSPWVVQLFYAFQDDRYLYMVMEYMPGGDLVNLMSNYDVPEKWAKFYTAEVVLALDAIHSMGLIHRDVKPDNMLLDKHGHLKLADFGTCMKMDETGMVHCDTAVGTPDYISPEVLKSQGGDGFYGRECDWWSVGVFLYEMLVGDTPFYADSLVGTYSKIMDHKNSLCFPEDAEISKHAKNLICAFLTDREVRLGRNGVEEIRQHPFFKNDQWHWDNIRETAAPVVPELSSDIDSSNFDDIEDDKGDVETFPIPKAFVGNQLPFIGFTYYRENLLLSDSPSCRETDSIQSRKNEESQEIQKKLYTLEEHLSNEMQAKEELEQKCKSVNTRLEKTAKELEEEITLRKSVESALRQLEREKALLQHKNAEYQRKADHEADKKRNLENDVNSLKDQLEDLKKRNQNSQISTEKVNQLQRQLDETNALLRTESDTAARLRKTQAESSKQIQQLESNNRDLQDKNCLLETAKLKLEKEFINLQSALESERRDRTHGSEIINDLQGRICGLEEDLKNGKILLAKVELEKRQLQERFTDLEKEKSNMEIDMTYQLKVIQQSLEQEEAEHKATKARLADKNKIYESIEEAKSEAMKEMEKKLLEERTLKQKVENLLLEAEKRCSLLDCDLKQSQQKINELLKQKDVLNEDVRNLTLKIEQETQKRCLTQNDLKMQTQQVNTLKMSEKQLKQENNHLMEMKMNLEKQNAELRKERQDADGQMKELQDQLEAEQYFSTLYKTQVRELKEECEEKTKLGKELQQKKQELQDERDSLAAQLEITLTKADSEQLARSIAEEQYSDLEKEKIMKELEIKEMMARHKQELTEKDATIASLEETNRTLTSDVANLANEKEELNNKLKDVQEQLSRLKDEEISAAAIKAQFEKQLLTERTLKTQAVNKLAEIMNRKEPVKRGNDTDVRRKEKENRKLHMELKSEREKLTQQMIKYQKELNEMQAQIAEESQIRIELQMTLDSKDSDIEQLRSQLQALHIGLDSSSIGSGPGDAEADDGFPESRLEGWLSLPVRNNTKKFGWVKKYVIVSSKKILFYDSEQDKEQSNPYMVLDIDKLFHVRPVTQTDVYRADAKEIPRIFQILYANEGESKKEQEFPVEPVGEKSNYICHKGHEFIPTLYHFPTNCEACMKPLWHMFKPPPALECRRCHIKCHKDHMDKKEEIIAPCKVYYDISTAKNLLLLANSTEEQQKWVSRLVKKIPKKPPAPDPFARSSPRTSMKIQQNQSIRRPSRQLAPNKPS
As usually defined, the Ki is the equilibrium dissociation constant of an inhibitor or competing ligand from its target. A low value points to higher affinity. Consider `O=C(CCc1ccccc1)Nc1ccc2c(c1)C(=O)NC2=O`, for which the Ki was ≤ 2000 nM.

For `O=C(CSc1ccccc1F)Nc1ccc2c(c1)C(=O)NC2=O`, the Ki was ≤ 2000 nM.

`O=C(Cc1ccc(F)cc1F)Nc1ccc2c(c1)C(=O)NC2=O`: the Ki was ≤ 2000 nM.

As to `O=C(COc1ccc(Cl)cc1)Nc1ccc2c(c1)C(=O)NC2=O`, the Ki is ≤ 2000 nM.

With `O=C(CSc1cccc(Cl)c1Cl)Nc1ccc2c(c1)C(=O)NC2=O`, the Ki was ≤ 2000 nM.

`Cc1cc(C)cc(SCC(=O)Nc2ccc3c(c2)C(=O)NC3=O)c1`: the Ki is ≤ 2000 nM.

As to `Cc1ccc(NCC(=O)Nc2ccc3c(c2)C(=O)NC3=O)c(C)c1`, the Ki was ≤ 2000 nM.

For `O=C(Cc1ccc2c(c1)OCO2)Nc1ccc2c(c1)C(=O)NC2=O`, the inhibition constant Ki is ≤ 2000 nM.

On to `O=C(CSc1cccc(O)c1)Nc1ccc2c(c1)C(=O)NC2=O`, for which the Ki is ≤ 2000 nM.

In the case of `Cc1ccccc1NCC(=O)Nc1ccc2c(c1)C(=O)NC2=O`, the Ki is ≤ 2000 nM.

Regarding `O=C(Cc1cccc(F)c1F)Nc1ccc2c(c1)C(=O)NC2=O`, the Ki is ≤ 2000 nM.

Regarding `O=C(CSc1ccc(Cl)cc1Cl)Nc1ccc2c(c1)C(=O)NC2=O`, the inhibition constant Ki is ≤ 2000 nM.

With `O=C(CSc1ccccc1Cl)Nc1ccc2c(c1)C(=O)NC2=O`, the Ki is ≤ 2000 nM.

Regarding `O=C(CSc1ccc(Cl)c(Cl)c1)Nc1ccc2c(c1)C(=O)NC2=O`, the Ki is ≤ 2000 nM.

With `O=C(Cc1cccc(Cl)c1)Nc1ccc2c(c1)C(=O)NC2=O`, the Ki is ≤ 2000 nM.

In the case of `COc1cccc(NCC(=O)Nc2ccc3c(c2)C(=O)NC3=O)c1`, the Ki is ≤ 2000 nM.

`O=C(Cc1ccc(F)cc1)Nc1ccc2c(c1)C(=O)NC2=O`: the Ki was ≤ 2000 nM.

In the case of `O=C(CSc1cccc2ccccc12)Nc1ccc2c(c1)C(=O)NC2=O`, the inhibitory constant (Ki) is ≤ 2000 nM.

As for `O=C(CSc1ccccc1C(F)(F)F)Nc1ccc2c(c1)C(=O)NC2=O`, the Ki is ≤ 2000 nM.

For `Cc1ccc(SCC(=O)Nc2ccc3c(c2)C(=O)NC3=O)cc1`, the Ki was ≤ 2000 nM.

With `O=C(Cc1cccc(C(F)(F)F)c1)Nc1ccc2c(c1)C(=O)NC2=O`, the Ki was ≤ 2000 nM.

Take `CC(Oc1ccccc1)C(=O)Nc1ccc2c(c1)C(=O)NC2=O` (stereo not given): the Ki was ≤ 2000 nM.

As to `COc1ccc(CC(=O)Nc2ccc3c(c2)C(=O)NC3=O)cc1`, the Ki is ≤ 2000 nM.

For the molecule `O=C(Cc1cc(F)ccc1F)Nc1ccc2c(c1)C(=O)NC2=O`, the inhibition constant (Ki) is ≤ 2000 nM.

Take `O=C(Cc1cccc(F)c1)Nc1ccc2c(c1)C(=O)NC2=O`: the Ki was ≤ 2000 nM.

`O=C(Cc1cc(Cl)ccc1F)Nc1ccc2c(c1)C(=O)NC2=O`: the Ki was ≤ 2000 nM.

Take `O=C(CSc1cccc(Br)c1)Nc1ccc2c(c1)C(=O)NC2=O`: the Ki is ≤ 2000 nM.

For `O=C(CNc1cccc(F)c1)Nc1ccc2c(c1)C(=O)NC2=O`, the Ki was ≤ 2000 nM.

Regarding `Cc1cccc(NCC(=O)Nc2ccc3c(c2)C(=O)NC3=O)c1`, the Ki is ≤ 2000 nM.

For the molecule `O=C(CNc1cccc(OCc2ccccc2)c1)Nc1ccc2c(c1)C(=O)NC2=O`, the Ki was ≤ 2000 nM.

For the molecule `O=C(CSc1ccc(F)c(Cl)c1)Nc1ccc2c(c1)C(=O)NC2=O`, the inhibition constant Ki is ≤ 2000 nM.

With `O=C(CSc1ccc(F)cc1F)Nc1ccc2c(c1)C(=O)NC2=O`, the Ki was ≤ 2000 nM.

With `COc1ccc(NCC(=O)Nc2ccc3c(c2)C(=O)NC3=O)cc1Cl`, the Ki was ≤ 2000 nM.

In the case of `O=C(COc1ccccc1)Nc1ccc2c(c1)C(=O)NC2=O`, the Ki was ≤ 2000 nM.

As for `O=C(CNc1ccc(F)c(Cl)c1)Nc1ccc2c(c1)C(=O)NC2=O`, the inhibition constant Ki was ≤ 2000 nM.

In the case of `O=C(Cc1cccc(C(F)(F)F)c1F)Nc1ccc2c(c1)C(=O)NC2=O`, the Ki is ≤ 2000 nM.

`O=C(CSc1ccc(F)cc1)Nc1ccc2c(c1)C(=O)NC2=O`: the inhibition constant (Ki) was ≤ 2000 nM.

Consider `O=C(Cc1cc(F)cc(F)c1F)Nc1ccc2c(c1)C(=O)NC2=O`, for which the Ki is ≤ 2000 nM.

Take `O=C(CNc1cccc2[nH]ccc12)Nc1ccc2c(c1)C(=O)NC2=O`: the Ki is ≤ 2000 nM.

On to `O=C(CNc1cccc(Cl)c1)Nc1ccc2c(c1)C(=O)NC2=O`, for which the Ki was ≤ 2000 nM.

Consider `O=C(Cc1ccccc1Cl)Nc1ccc2c(c1)C(=O)NC2=O`, for which the Ki is ≤ 2000 nM.

Consider `O=C(Cc1ccccc1F)Nc1ccc2c(c1)C(=O)NC2=O`, for which the Ki was ≤ 2000 nM.

For the molecule `O=C(CSc1cccc(Cl)c1)Nc1ccc2c(c1)C(=O)NC2=O`, the Ki is ≤ 2000 nM.

Regarding `O=C(Cc1ccc(Cl)cc1)Nc1ccc2c(c1)C(=O)NC2=O`, the Ki is ≤ 2000 nM.

Turning to `O=C(Cc1cc(F)c(Cl)cc1Cl)Nc1ccc2c(c1)C(=O)NC2=O`, the Ki was ≤ 2000 nM.

For `O=C(Cc1ccc(F)cc1Cl)Nc1ccc2c(c1)C(=O)NC2=O`, the inhibition constant (Ki) is ≤ 2000 nM.

`O=C(CSc1ccccc1)Nc1ccc2c(c1)C(=O)NC2=O`: the Ki is ≤ 2000 nM.

Turning to `O=C(CNc1cccc2c1CCCC2)Nc1ccc2c(c1)C(=O)NC2=O`, the Ki is ≤ 2000 nM.

As for `Cc1ccc(OCC(=O)Nc2ccc3c(c2)C(=O)NC3=O)cc1`, the inhibition constant Ki is ≤ 2000 nM.

For the molecule `O=C(Cc1cccc(O)c1)Nc1ccc2c(c1)C(=O)NC2=O`, the Ki is ≤ 2000 nM.

With `COc1cccc(CC(=O)Nc2ccc3c(c2)C(=O)NC3=O)c1`, the Ki is ≤ 2000 nM.

As to `O=C(Cc1cc2c(cc1Cl)OCO2)Nc1ccc2c(c1)C(=O)NC2=O`, the inhibition constant (Ki) was ≤ 2000 nM.

With `Cc1ccc(SCC(=O)Nc2ccc3c(c2)C(=O)NC3=O)c(C)c1`, the Ki was ≤ 2000 nM.

For `O=C(Cc1ccc(Cl)c(Cl)c1)Nc1ccc2c(c1)C(=O)NC2=O`, the inhibition constant (Ki) was ≤ 2000 nM.

As for `COc1cccc(OCC(=O)Nc2ccc3c(c2)C(=O)NC3=O)c1`, the Ki is ≤ 2000 nM.

Values taken from the Kinase Knowledgebase extract (Sharma et al. 2016).
